Assay results as given in patent US20080107619A1, “Carbohydrate based cellulase inhibitors as feeding stimulants in termites” (University of Florida Research Foundation, Inc., priority 2006, published 2008).

Legend:
endoglucanase [1] = test: In vitro endoglucanase inhibition, CMC assay (I50 determination); assay type: biochemical, R. flavipes; conditions: foregut/salivary gland/midgut (endogenous) and hindgut (symbiotic) fractions, FIG. 4
Experimental: (§1) Gut dissections were carried out for cellulase distribution and inhibition studies. For dissections, termites were immobilized on ice, decapitated, and the entire digestive tract removed through a small incision made in the abdominal exoskeleton. For cellulase distribution studies, dissected guts were divided into three regions: (i) salivary gland+foregut, (ii) midgut and (iii) hindgut. For inhibition studies, guts were divided into two major components that included: (i) foregut, salivary gland and midgut, and (ii) hindgut. […]
(§2) Cellulase activity assays were adapted from Han et al. in “Characterization of a bifunctional cellulase and its structural gene,” J. Biol. Chem. 270 (1995) 26012-26019, with optimization for a 96-well microplate format. […] Color was allowed to develop on ice for 15 min before measuring absorbance at 540 nm relative to a glucose standard curve.
The efficacy of the three carbohydrate-based cellulase inhibitors CBI (FIG. 1D), FMG (FIG. 1E) and FMCB (FIG. 1F) was tested against two different gut enzyme sources that included (i) endogenous termite cellulases from salivary gland, foregut and midgut, and (ii) symbiotic cellulases from the hindgut. […] Percent inhibition was calculated relative to methanol controls. […]

β-glucosidase = test: In vitro β-glucosidase inhibition, pNPG assay (I50 determination); assay type: biochemical, R. flavipes; conditions: foregut/salivary gland/midgut (endogenous) and hindgut (symbiotic) fractions, FIG. 4
Experimental: as §1, §2
(§3) The hydrolysis product of both the pNPC and pNPG substrates is p-nitrophenol, which is yellow in color and permits for direct quantification of activity in a kinetic assay. pNPC and pNPG assays were initially incubated at 32° C. for 20 min before measuring the release of the product, p-nitrophenol, at 420 nm. The absorbance of reactions was read every 2 min for 1 hr and activity was determined based on rate of absorbance change. […]

exoglucanase = test: In vitro exoglucanase inhibition, pNPC assay (I50 determination); assay type: biochemical, R. flavipes; conditions: foregut/salivary gland/midgut (endogenous) and hindgut (symbiotic) fractions, FIG. 4
Experimental: as §1, §2, §3

Cel5A enzyme = biological target: T1, Cel5A enzyme (Salipaludibacillus agaradhaerens, UniProt O85465); conditions: Varrott et al.; read-out: I50 value; cited from earlier work
T1 sequence (O85465 27-400): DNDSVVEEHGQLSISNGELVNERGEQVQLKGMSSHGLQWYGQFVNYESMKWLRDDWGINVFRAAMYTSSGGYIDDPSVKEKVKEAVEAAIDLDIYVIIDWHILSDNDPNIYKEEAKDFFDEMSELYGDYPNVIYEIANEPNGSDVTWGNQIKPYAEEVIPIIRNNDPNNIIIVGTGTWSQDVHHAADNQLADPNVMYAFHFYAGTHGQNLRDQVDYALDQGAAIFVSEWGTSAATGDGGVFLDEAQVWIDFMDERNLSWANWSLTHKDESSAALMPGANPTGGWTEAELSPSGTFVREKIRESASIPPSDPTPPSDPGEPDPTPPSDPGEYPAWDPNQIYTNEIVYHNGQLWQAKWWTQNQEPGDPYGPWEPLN

endoglucanase [2] = test: Post-feeding inhibition of endoglucanase activity in whole-body homogenates; assay type: in vivo, R. flavipes; conditions: after 24 days feeding, various concentrations; FIGS. 11A-11C
Experimental: Whole body homogenates were used for optimization and post-feeding inhibition studies. Here, 10-15 termite workers were homogenized in 1 to 1.5 ml ice-cold homogenization buffer with a Teflon-glass (Potter-Elvehjem) homogenizer powered by a motorized electric stirrer (Fisher Scientific). After homogenization, both gut region and whole-body preparations were centrifuged at 15,000× g and 4° C. for 15 min. The resulting supernatants from the different gut regions were used directly for subsequent enzyme assays. Supernatants from whole-body homogenates were passed through glass wool to remove excess lipids before proceeding with cellulase activity assays.
Cellulase activity assays were adapted from Han et al. in “Characterization of a bifunctional cellulase and its structural gene,” J. Biol. Chem. 270 (1995) 26012-26019, with optimization for a 96-well microplate format. The model substrates used to test for endoglucanase, exoglucanase and β-glucosidase activities were CMC (FIG. 1A), pNPC (FIG. 1B) and pNPG (FIG. 1C), respectively. The substrate concentration used for CMC was 0.5% (w/v), while pNPG and pNPC were used at 4 mM. All substrates were diluted in homogenization buffer. […] Color was allowed to develop on ice for 15 min before measuring absorbance at 540 nm relative to a glucose standard curve. […]

Row | Molecule | I50 against endoglucanase activity (endoglucanase [1]) | I50 against β-glucosidase activity (β-glucosidase) | I50 against exoglucanase activity (exoglucanase) | IC50 (Cel5A enzyme) | endoglucanase activity after feeding, reduction relative to controls (endoglucanase [2])
1 | fluoromethyl glucose [FMG] | virtually no inhibitory properties | virtually no inhibitory properties | virtually no inhibitory properties |  | 
2 | OC[C@@H]1[C@@H](O[C@@H]2O[C@H](CO)[C@@H](O)[C@H](O)[C@H]2O)[C@H](O)[C@@H](O)c2nccn21 [CBI, cellobioimidazole] | virtually no activity | I50s in the nM-μM range | I50s in the nM-μM range | 88 µM | significant
